From US10233187B2, “Fused bicyclic compounds for the treatment of disease” (AKARNA THERAPEUTICS, LTD., priority 2014, dated 2019)

Molecular target: FXR (Homo sapiens (Human), UniProt Q96RI1)
Assay: FXR Agonist Assay (Gaussia luciferase reporter)
Type: cell-based
Details: cells incubated with compound at 37° C. for 20 hours; Gaussia luciferase luminescence; 10-point dose-response in duplicate
Description: Starting from 3.33 mM of compound in DMSO solution, a 10-point 3-fold serial dilution was made by diluting 5 μL of compound into 10 μL of DMSO. The serially diluted compound was then diluted 1:33 into DMEM. This medium was then diluted ten-fold into the culture medium with the cells (10 μL/well). All concentration points are assayed in duplicate. Plates were incubated at 37° C. for 20 hours. After the incubation, 20 μL of culture medium were removed from each well and mixed with 50 μL of assay solution (Pierce™ Gaussia Luciferase Flash Assay Kit). The luminescence was measured immediately after addition of the Luc substrate with an Envision microplate reader. The raw data was uploaded to CDD and dose-response curves were generated using the Levenberg-Marquardt algorithm integrated into CDD. A negative control DMSO is included on each plate and used to normalize the data with the CDD built-in normalization function.

FXR, sequence (Q96RI1 whole entry, species assumed): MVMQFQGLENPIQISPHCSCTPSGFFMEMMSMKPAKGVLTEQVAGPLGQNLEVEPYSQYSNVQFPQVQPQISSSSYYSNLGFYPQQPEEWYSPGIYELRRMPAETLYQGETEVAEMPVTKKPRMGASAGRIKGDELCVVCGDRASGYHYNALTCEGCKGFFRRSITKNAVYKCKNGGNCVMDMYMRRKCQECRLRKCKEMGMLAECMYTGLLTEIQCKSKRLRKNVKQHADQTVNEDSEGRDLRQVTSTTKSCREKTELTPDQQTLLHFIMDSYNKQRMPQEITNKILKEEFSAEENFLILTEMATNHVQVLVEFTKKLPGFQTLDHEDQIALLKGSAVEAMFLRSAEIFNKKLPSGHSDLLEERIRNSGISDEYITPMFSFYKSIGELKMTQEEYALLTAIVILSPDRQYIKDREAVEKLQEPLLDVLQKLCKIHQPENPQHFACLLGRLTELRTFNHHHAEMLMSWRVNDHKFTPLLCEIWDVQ

Row | EC50 [nM] | Compound
1 | < 200 | CCCCc1n[nH]c2c1C(C)(C)CN(C(=O)N1CCOCC1)C=C2C(=O)OC(C)C [Example 29]
2 | 200 to 1000 | CCCCc1n[nH]c2c1C(C)(C)CN(C(=O)C1CCOCC1)C=C2C(=O)OC(C)C [Example 32]
3 | 200 to 1000 | CC(C)OC(=O)C1=CN(C(=O)c2ccc(F)c(OCCN3CCOCC3)c2)CC(C)(C)c2c(C(F)(F)F)n[nH]c21 [Example 6]
4 | < 200 | CCOC(=O)C1=CN(C(=O)c2ccc(F)c(F)c2)CC(C)(C)c2c(C)n[nH]c21 [Example 2, (E)-ethyl 6-(3,4-difluorobenzoyl)-3,4,4-trimethyl-1,4,5,6-tetrahydropyrazolo[3,4-d]azepine-8-carboxylate]
5 | 200 to 1000 | CCCCc1n[nH]c2c1C(C)(C)CN(C(=O)C1CCCCC1)C=C2C(=O)OC(C)C [Example 30]
6 | < 200 | CC(C)OC(=O)C1=CN(C(=O)c2ccc(F)cc2)CC(C)(C)c2c(C(F)(F)F)n[nH]c21 [Example 17]
7 | < 200 | CC(C)NC(=O)C1=CN(C(=O)c2ccc(OCCN3CCOCC3)cc2)CC(C)(C)c2c(C(F)(F)F)n[nH]c21 [Example 8]
8 | 200 to 1000 | CCCc1n[nH]c2c1C(C)(C)CN(C(=O)c1ccncc1)C=C2C(=O)OC(C)C [Example 20]
9 | 1000 to 10000 | CCOC(=O)C1=CN(C(=O)C2CCCCC2)CC(C)(C)c2cn[nH]c21 [Example 48]
10 | < 200 | CCCc1n[nH]c2c1C(C)(C)CN(C(=O)C1CCCCC1)C=C2C(=O)OC(C)C [Example 35]
11 | < 200 | CCCc1n[nH]c2c1C(C)(C)CN(C(=O)c1ccc(F)c(F)c1)C=C2C(=O)OCC [Example 40]
12 | < 200 | CCOC(=O)C1=CN(C(=O)c2ccc(F)c(F)c2)CC(C)(C)c2c(CC)n[nH]c21 [Example 41]
13 | 200 to 1000 | CC(C)OC(=O)C1=CN(C(=O)c2cccc(OCCN3CCOCC3)c2)CC(C)(C)c2c(C(F)(F)F)n[nH]c21 [Example 7]
14 | 200 to 1000 | CCCc1n[nH]c2c1C(C)(C)CN(C(=O)C1CCOCC1)C=C2C(=O)OC(C)C [Example 36]
15 | < 200 | CCCCc1n[nH]c2c1C(C)(C)CN(C(=O)c1cccc(F)c1)C=C2C(=O)OC(C)C [Example 33]
16 | < 200 | COCCc1n[nH]c2c1C(C)(C)CN(C(=O)c1cccc(F)c1)C=C2C(=O)OC(C)C [Example 27]
17 | < 200 | CC(C)OC(=O)C1=CN(C(=O)c2cc(F)c(F)cc2Cl)CC(C)(C)c2c(C(F)(F)F)n[nH]c21 [Example 11]
18 | 1000 to 10000 | CCCc1n[nH]c2c1C(C)(C)CN(C(=O)c1ccccn1)C=C2C(=O)OC(C)C [Example 19]
19 | 200 to 1000 | CCCc1n[nH]c2c1C(C)(C)CN(C(=O)c1ccc(C(F)(F)F)nc1)C=C2C(=O)OC(C)C [Example 21]
20 | < 200 | CC(=O)c1n[nH]c2c1C(C)(C)CN(C(=O)c1ccc(F)c(F)c1)C=C2C(=O)OC(C)C [Example 10]
21 | < 200 | CC(C)Cc1n[nH]c2c1C(C)(C)CN(C(=O)c1ccc(F)c(F)c1)C=C2C(=O)OC(C)C [Example 26]
22 | < 200 | CC(C)OC(=O)C1=CN(C(=O)c2ccc(F)c(F)c2)CC(C)(C)c2c(C(F)(F)F)n[nH]c21 [Example 24]
23 | < 200 | CC(C)OC(=O)C1=CN(C(=O)c2cccc(F)c2)CC(C)(C)c2c(C(F)(F)F)n[nH]c21 [Example 23]

Row | EC50 [nM] | Compound
24 | < 200 | COCCc1n[nH]c2c1C(C)(C)CN(C(=O)c1ccc(F)c(F)c1)C=C2C(=O)OC(C)C [Example 28]
25 | < 200 | CCOC(=O)C1=CN(C(=O)c2ccc(F)c(F)c2)CC(C)(C)c2c(C(C)C)n[nH]c21 [Example 5]
26 | 200 to 1000 | CCOC(=O)C1=CN(C(=O)c2cccc(F)c2)CC(C)(C)c2cn[nH]c21 [Example 49]
27 | 200 to 1000 | CCCc1n[nH]c2c1C(C)(C)CN(C(=O)N1CCOCC1)C=C2C(=O)OC(C)C [Example 34]
28 | < 200 | CCCc1n[nH]c2c1C(C)(C)CN(C(=O)c1cccc(F)c1)C=C2C(=O)OC(C)C [Example 37]
29 | < 200 | CCOC(=O)C1=CN(C(=O)c2ccc3ccccc3c2)CC(C)(C)c2cn[nH]c21 [Example 43]
30 | < 200 | CC(C)Cc1n[nH]c2c1C(C)(C)CN(C(=O)c1cccc(F)c1)C=C2C(=O)OC(C)C [Example 25]
31 | 200 to 1000 | CCOC(=O)C1=CN(C(=O)c2cc3ccccc3s2)CC(C)(C)c2cn[nH]c21 [Example 44]
32 | < 200 | CC(C)OC(=O)C1=CN(C(=O)c2ccc(Cl)c(Cl)c2)CC(C)(C)c2cn[nH]c21 [Example 42]
33 | 200 to 1000 | CCOC(=O)C1=CN(C(=O)c2ccc(F)c(F)c2)CC(C)(C)c2cn[nH]c21 [Example 4, (E)-ethyl 6-(3,4-difluorobenzoyl)-4,4-dimethyl-1,4,5,6-tetrahydropyrazolo[3,4-d]azepine-8-carboxylate]
34 | < 200 | CC(C)OC(=O)C1=CN(C(=O)c2ccc(OCCCN3CCOCC3)cc2)CC(C)(C)c2c(C(F)(F)F)n[nH]c21 [Example 9]
35 | < 200 | CC(C)OC(=O)C1=CN(C(=O)c2ccc(F)cc2F)CC(C)(C)c2c(C(F)(F)F)n[nH]c21 [Example 16]
36 | 1000 to 10000 | CCOC(=O)C1=CN(C(=O)c2ccc3c(c2)OC(F)(F)O3)CC(C)(C)c2cn[nH]c21 [Example 47]
37 | < 200 | CCCCc1n[nH]c2c1C(C)(C)CN(C(=O)c1ccc(F)c(F)c1)C=C2C(=O)OCC [Example 39]
38 | 200 to 1000 | CCCc1n[nH]c2c1C(C)(C)CN(C(=O)c1cccnc1)C=C2C(=O)OC(C)C [Example 18]
39 | 200 to 1000 | CC(C)OC(=O)C1=CN(C(=O)c2ccc(F)c(F)c2)CC(C)(C)c2cn[nH]c21 [Example 46]
40 | < 200 | CCCc1n[nH]c2c1C(C)(C)CN(C(=O)c1ccc(F)c(F)c1)C=C2C(=O)OC(C)C [Example 38]
41 | 200 to 1000 | CC(C)OC(=O)C1=CN(C(=O)N2CCN(C)CC2)CC(C)(C)c2c(C(F)(F)F)n[nH]c21 [Example 22]
42 | < 200 | CC(C)OC(=O)C1=CN(C(=O)c2ccc(OCCN3CCOCC3)cc2)CC(C)(C)c2c(C(F)(F)F)n[nH]c21 [Example 13]
43 | < 200 | CCCCc1n[nH]c2c1C(C)(C)CN(C(=O)c1ccc(F)c(F)c1)C=C2C(=O)OC(C)C [Example 31]
44 | < 200 | CC(C)NC(=O)C1=CN(C(=O)c2ccc(F)c(F)c2)CC(C)(C)c2c(C(F)(F)F)n[nH]c21 [Example 14]
45 | 200 to 1000 | CC(C)NC(=O)C1=CN(C(=O)c2ccc(F)c(F)c2)CC(C)(C)c2cn[nH]c21 [Example 45]
46 | < 200 | CCOC(=O)C1=CN(C(=O)c2ccc(F)c(F)c2)CC(C)(C)c2c(-c3ccc(F)cc3)n[nH]c21 [Example 3, (E)-ethyl 6-(3,4-difluorobenzoyl)-3-(4-fluorophenyl)-4,4-dimethyl-1,4,5,6-tetrahydropyrazolo[3,4-d]azepine-8-carboxylate]

Row | Compound | EC50 [nM]
47 | CC(C)OC(=O)C1=CN(C(=O)c2ccc(F)c(CN3CCOCC3)c2)CC(C)(C)c2c(C(F)(F)F)n[nH]c21 [Example 12] | < 200
